According to patent US10231907B2, “Compositions for improving the health and appearance of skin” (Algenist Holdings, Inc., priority 2006, dated 2019):

Assays:
[1] = test system: human PMN leukocytes; test: PMN migration (chemotaxis chamber, FMLP); assay type: cell-based; details: 2 ug/ml, mean ± SD
Protocol: Microalgal polysaccharide materials were tested for their ability to influence the migration of polymorphonucelar (PMN) leukocytes in response to chemotractant substances. Leukocyte migration is essential for leukocyte accumulation at sites of inflammation. During the inflammatory response, leukocytes migrate towards the source of a chemotractant substance in a process called chemotaxis. In vitro methods to study chemotaxis often use a membrane based approach, where a chemoattractant is placed on one side of a membrane and PMN leukocytes are placed on the other. Chemotaxis is then measured by quantifying the number of leukocytes which then migrate through the filter towards the chemotractant substance.
For this study, human PMN leukocytes were isolated via density centrifugation from freshly drawn blood. The PMN cells were loaded with a Calcein AM, a fluorescent dye. […] The chemotaxis chamber was be incubated and at the end of the incubation period the fluorescence of the bottom wells was read and used as an index of PMN migration. […]
Heparinized whole blood (20-30 ml) was collected from a healthy human donor, layered over a density gradient (Histopaque 1077 and Histopaque 1119) and centrifuged at 400 g for 30 min. […] After the incubation, the PMN cells were washed twice with PBS, counted and resuspended in RPMI-FCS at 1-5×10^6 cells/ml. […]

[2] = test system: elastase; test: Anti-elastase assay (fibroblast lysate, STANA substrate); assay type: biochemical, human; details: 100 μM
Protocol: Human dermal fibroblasts were cultured and used as a source of the elastase enzyme. This enzyme was be partially purified from the fibroblasts by lysing the cells in an elastase buffer and retaining the soluble portion of the lysate. Portions of this fibroblast lysate were then be incubated with test materials a synthetic elastase substrate, Suc-(Ala3)-p-Nitroaniline (STANA). Elastase acts upon this substrate to release p-nitroaniline, which is detected with a spectrophotometer by measuring the absorbance at a wavelength of 405 nm. An inhibition of the elastase enzyme is identified by a decrease in the amount of released p-nitroaniline when compared to uninhibited enzyme.
Test material BM was supplied as a powder. 100 mg of BM was combined with either 5 ml of ethanol or 5 ml of ultrapure water in 15 ml centrifuge tubes. […]
After measuring the protein concentration of the lysate, a small sample was obtained and the elastase activity of the lysate was determined at 100%, 50% and 25% concentrations using 2× elastase buffer to make the dilutions. […] After the incubation the well plate was read at 405 nm using a microplate reader. The mean absorbance for each concentration of the lysate was plotted versus its respective concentration. […]

| Percent Inhibition [2] | SMILES | Percent of Maximal Migration [1] |
| --- | --- | --- |
| – | C[C@@H]1[C@H](O)[C@@H](C)/C=C/C=C/C=C/C=C/C=C/C=C/C=C/[C@H](O[C@@H]2O[C@H](C)[C@@H](O)[C@H](N)[C@@H]2O)C[C@@H]2O[C@](O)(C[C@@H](O)C[C@@H](O)[C@H](O)CC[C@@H](O)C[C@@H](O)CC(=O)O[C@H]1C)C[C@H](O)[C@H]2C(=O)O [Amphotericin B] | 9.4 ± 0.6% |
| 94% | CC(C)C[C@H](NP(=O)(O)O[C@@H]1O[C@@H](C)[C@H](O)[C@@H](O)[C@H]1O)C(=O)N[C@@H](Cc1c[nH]c2ccccc12)C(=O)O [Phosphoramidon] | – |
